In ChEMBL document CHEMBL1201862, “PubChem BioAssay data set” (2004):
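Where inhibition never reached the appropriate level, the endpoint shown equals the highest concentration tested. Otherwise, values were interpolated linearly from a five-concentration, 48-hour dose response in 96-well plates. GI50 = concentration required for 50% inhibition of growth.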 Activity calls are given as the source filed them. Cut-off read from the data, not from the text of the source: active = GI50 up to about 1.1 µM and inactive = higher.

How the values were obtained:
Test in all cases: NCI anticancer screen, dose series, 48 h
NCI-H23 = test system: NCI-H23
MCF7 = test system: MCF7
SK-MEL-5 = test system: SK-MEL-5
HOP-62 = test system: HOP-62
SW-620 = test system: SW-620
U-251 = test system: U-251
HOP-92 = test system: HOP-92
NCI-H226 = test system: NCI-H226
SNB-75 = test system: SNB-75
NCI/ADR-RES = test system: NCI/ADR-RES
SF-539 = test system: SF-539
OVCAR-3 = test system: OVCAR-3
PC-3 = test system: PC-3
COLO 205 = test system: COLO 205
OVCAR-4 = test system: OVCAR-4
786-0 = test system: 786-0
ACHN = test system: ACHN
CCRF-CEM = test system: CCRF-CEM
NCI-H522 = test system: NCI-H522
UACC-62 = test system: UACC-62

Compound | GI50 (NCI-H23) | GI50 (MCF7) | GI50 (SK-MEL-5) | GI50 (HOP-62) | GI50 (SW-620) | GI50 (U-251) | GI50 (HOP-92) | GI50 (NCI-H226) | GI50 (SNB-75) | GI50 (NCI/ADR-RES) | GI50 (SF-539) | GI50 (OVCAR-3) | GI50 (PC-3) | GI50 (COLO 205) | GI50 (OVCAR-4) | GI50 (786-0) | GI50 (ACHN) | GI50 (CCRF-CEM) | GI50 (NCI-H522) | GI50 (UACC-62)
CCOC(=O)C12OC(OCC)(CC1(OCC)OCC)C1(CC1)C2=O (stereo not given) | > 100 µM (inactive) | > 100 µM (inactive) | > 100 µM (inactive) | > 100 µM (inactive) | > 100 µM (inactive) | > 100 µM (inactive) | > 100 µM (inactive) | > 100 µM (inactive) | > 100 µM (inactive) | > 100 µM (inactive) | > 100 µM (inactive) | > 100 µM (inactive) | > 100 µM (inactive) | > 100 µM (inactive) | > 100 µM (inactive) | > 100 µM (inactive) | > 100 µM (inactive) | > 100 µM (inactive) |  | 
COc1ccc2cc(Oc3ccc(Cl)cc3)c(=O)oc2c1 | > 100 µM (inactive) | > 100 µM (inactive) | > 100 µM (inactive) | 50.1 µM (inactive) | > 100 µM (inactive) | > 10 µM (inactive) | > 100 µM (inactive) | > 100 µM (inactive) | > 100 µM (inactive) |  | > 100 µM (inactive) | > 100 µM (inactive) | > 100 µM (inactive) |  | > 100 µM (inactive) | > 100 µM (inactive) | > 100 µM (inactive) | > 100 µM (inactive) | > 100 µM (inactive) | 
CC1CCCC(CC(=O)O)(CC(=O)O)C1 (stereo not given) | > 100 µM (inactive) | > 100 µM (inactive) | > 100 µM (inactive) |  | > 100 µM (inactive) | > 100 µM (inactive) | > 100 µM (inactive) | > 100 µM (inactive) |  | > 100 µM (inactive) | > 100 µM (inactive) |  | > 100 µM (inactive) | > 100 µM (inactive) | > 100 µM (inactive) | > 100 µM (inactive) | > 100 µM (inactive) | > 100 µM (inactive) | > 100 µM (inactive) | > 100 µM (inactive)
CCN(CC)c1ccc2cc(C(=O)Nc3ccccc3OC)c(=N)oc2c1 | 20.4 µM (inactive) | 16.3 µM (inactive) | 32.1 µM (inactive) | 12 µM (inactive) | 8.67 µM (inactive) | 10.1 µM (inactive) |  |  |  | 23.7 µM (inactive) | 46.6 µM (inactive) | 43.2 µM (inactive) | 11.8 µM (inactive) | 24.8 µM (inactive) | 27.5 µM (inactive) | 14.7 µM (inactive) | 11.3 µM (inactive) | 2.89 µM (inactive) | 10.4 µM (inactive) | 25.2 µM (inactive)
O=C(c1ccco1)N(C(=O)N1CCC(c2ccccc2)CC1)c1ccccc1 | 45.7 µM (inactive) | 66.5 µM (inactive) | 21.6 µM (inactive) |  | > 100 µM (inactive) | 76.2 µM (inactive) |  | 31.7 µM (inactive) | 1.95 µM (inactive) | 23.2 µM (inactive) | 74.5 µM (inactive) | 47 µM (inactive) | 22.3 µM (inactive) | 39.7 µM (inactive) |  | 92.9 µM (inactive) | > 100 µM (inactive) | 26.5 µM (inactive) |  | 52.1 µM (inactive)
CCN1C(NN)=NS(=O)(=O)c2ccccc21 | > 100 µM (inactive) | > 100 µM (inactive) | > 100 µM (inactive) | > 100 µM (inactive) | > 100 µM (inactive) | > 100 µM (inactive) | > 100 µM (inactive) | > 100 µM (inactive) |  | > 100 µM (inactive) | > 100 µM (inactive) | > 100 µM (inactive) | > 100 µM (inactive) | > 100 µM (inactive) | > 100 µM (inactive) | > 100 µM (inactive) | > 100 µM (inactive) | > 100 µM (inactive) | > 100 µM (inactive) | > 100 µM (inactive)
Cc1sc2nc(-c3ccc([N+](=O)[O-])cc3)c(/C=N/N=C(N)N)n2c1C | 1.43 µM (inactive) | 0.555 µM (active) | 1.38 µM (inactive) | 0.689 µM (active) | 0.195 µM (active) | 0.179 µM (active) | 1.33 µM (inactive) | 1.84 µM (inactive) |  | 2.76 µM (inactive) | 1.72 µM (inactive) | 1.75 µM (inactive) | 1.28 µM (inactive) | 0.251 µM (active) |  | 0.221 µM (active) | 1.33 µM (inactive) | 0.206 µM (active) | 1.32 µM (inactive) | 1.73 µM (inactive)
C=C(Br)CNCC(=C)Br | > 100 µM (inactive) | > 100 µM (inactive) | 89.7 µM (inactive) | > 100 µM (inactive) | > 100 µM (inactive) | > 100 µM (inactive) |  | > 100 µM (inactive) | 68.5 µM (inactive) | > 100 µM (inactive) | > 100 µM (inactive) | 30.8 µM (inactive) | 50.5 µM (inactive) | 52 µM (inactive) | > 100 µM (inactive) | > 100 µM (inactive) | > 100 µM (inactive) | 76.2 µM (inactive) | > 100 µM (inactive) | > 100 µM (inactive)
CSC(SC)=C(C(=O)c1ccc(Cl)cc1)n1c(=O)sc2cc(Br)ccc21 | > 100 µM (inactive) | > 100 µM (inactive) | > 100 µM (inactive) | > 100 µM (inactive) | > 100 µM (inactive) | > 100 µM (inactive) | 31.5 µM (inactive) | > 100 µM (inactive) |  | > 100 µM (inactive) | > 100 µM (inactive) | > 100 µM (inactive) | > 100 µM (inactive) | 66.4 µM (inactive) | 50.8 µM (inactive) | > 100 µM (inactive) | > 100 µM (inactive) | 69.2 µM (inactive) | > 100 µM (inactive) | > 100 µM (inactive)
S=C1SC(=N\c2ccccc2)/C(=N/c2ccccc2)N1c1ccc2ccccc2c1 | > 100 µM (inactive) | > 100 µM (inactive) | 38.1 µM (inactive) | > 100 µM (inactive) |  | > 100 µM (inactive) |  | > 100 µM (inactive) | 74.8 µM (inactive) | > 100 µM (inactive) |  | > 100 µM (inactive) | > 100 µM (inactive) | > 100 µM (inactive) | 80.7 µM (inactive) |  |  | > 100 µM (inactive) | > 100 µM (inactive) | > 100 µM (inactive)
C[C@@H]1C[C@@H](O)[C@@]2(O)C13CC(=O)OC(C3)[C@@H](C)[C@@]2(C)CO (stereo not given in full) | > 100 µM (inactive) | > 100 µM (inactive) | > 100 µM (inactive) | > 100 µM (inactive) | > 100 µM (inactive) | > 100 µM (inactive) | > 100 µM (inactive) | > 100 µM (inactive) |  | > 100 µM (inactive) | > 100 µM (inactive) | > 100 µM (inactive) | > 100 µM (inactive) | > 100 µM (inactive) | > 100 µM (inactive) | > 100 µM (inactive) | > 100 µM (inactive) |  | > 100 µM (inactive) | > 100 µM (inactive)
COc1cc(C2=C(C#N)C(N)OC3=C2COc2ccccc23)cc(OC)c1OC (stereo not given) | 33.9 µM (inactive) | > 100 µM (inactive) | 25.2 µM (inactive) | 6.62 µM (inactive) | 50.1 µM (inactive) | 14.7 µM (inactive) | 40.8 µM (inactive) | 30.4 µM (inactive) |  | 25.2 µM (inactive) | 20.4 µM (inactive) | 14.2 µM (inactive) | 16.6 µM (inactive) | > 100 µM (inactive) | 5.22 µM (inactive) |  | 12.6 µM (inactive) | 0.938 µM (active) |  | 50.4 µM (inactive)
COC(=O)c1cn(CCCC(=O)O)nn1 | > 100 µM (inactive) | > 100 µM (inactive) | > 100 µM (inactive) | > 100 µM (inactive) | > 100 µM (inactive) | > 100 µM (inactive) | > 100 µM (inactive) | > 100 µM (inactive) | > 100 µM (inactive) | > 100 µM (inactive) | > 100 µM (inactive) |  | > 100 µM (inactive) | > 100 µM (inactive) | > 100 µM (inactive) | > 100 µM (inactive) | > 100 µM (inactive) | > 100 µM (inactive) |  | > 100 µM (inactive)
COc1ccc(/C=C2\CCS(=O)(=O)c3ccccc3C2=O)cc1 | 25.7 µM (inactive) | 35.4 µM (inactive) |  | 36.3 µM (inactive) | 20.9 µM (inactive) | 17.8 µM (inactive) | 36 µM (inactive) | 20.2 µM (inactive) | 33.3 µM (inactive) | 20.1 µM (inactive) | 21.1 µM (inactive) | 30 µM (inactive) | 27.5 µM (inactive) | 15.2 µM (inactive) | 24.5 µM (inactive) | 18.3 µM (inactive) | 24.4 µM (inactive) | 20 µM (inactive) |  | 20 µM (inactive)
O=C1CC(n2ccnc2)c2c(Cl)sc(Cl)c21 (stereo not given) | 14.9 µM (inactive) | 4.94 µM (inactive) | 18.4 µM (inactive) | 18.7 µM (inactive) | 11 µM (inactive) | 17.7 µM (inactive) |  | 31.6 µM (inactive) | 20.6 µM (inactive) | 23.8 µM (inactive) | 17.2 µM (inactive) | 15.4 µM (inactive) | 15.7 µM (inactive) | 18.2 µM (inactive) | 19.5 µM (inactive) | 6.79 µM (inactive) | 18.1 µM (inactive) | 4.78 µM (inactive) | 6.31 µM (inactive) | 15.5 µM (inactive)
